This note sets out measurements from EPA's ToxRefDB 2.

Data set [1] relates to rat. To be noted: Subchronic oral toxicity in rodents, other, Feed, dose end: 13 week, group: systemic, systemic / in life observation / body weight / body weight gain + systemic / pathology microscopic / liver / infiltration cellular + ….
In data set [2] the test system is rat. To be noted: Prenatal developmental toxicity study, other, Oral, Gavage/Intubation, dose end: 15 GD.
For data set [3], the system named is dog. To be noted: Subchronic oral toxicity in nonrodent, beagle, Feed, dose end: 13 week, group: systemic, systemic / in life observation / body weight / body weight gain + systemic / in life observation / food consumption / food consumption.
The test system of data set [4] is rat. To be noted: Other (NonGuideline or Guideline Not Listed); sprague dawley; Oral; Gavage/Intubation; dose end: 7 day; group: cannot be grouped; systemic / clinical chemistry / alanine aminotransferase (alt/sgpt) / alanine aminotransferase (alt/sgpt) + systemic / clinical chemistry / ….
The subject of data set [5] is mouse. Conditions: Carcinogenicity, cd1, Oral, Water, dose end: 104 week, group: systemic.
For data set [6], the system named is rabbit. To be noted: Prenatal developmental toxicity study, new zealand white, Oral, Gavage/Intubation, dose end: 19 GD.
Data set [7] deals with rat. To be noted: Prenatal developmental toxicity study, other, Oral, Gavage/Intubation, dose end: 15 GD. This is another data set of the same source.
The subject of data set [8] is rat. Conditions: Chronic toxicity, other, Oral, Gavage/Intubation, dose end: 91 week, group: systemic.
Data set [9] relates to rat. To be noted: Multigenerational reproductive toxicity study, other, Oral, Gavage/Intubation, dose end: 2 generation.
The test system of data set [10] is dog. Conditions: Chronic toxicity, beagle, Oral, Gavage/Intubation, dose end: 52 week, group: systemic.
In data set [11] the test system is rat. Conditions: Prenatal developmental toxicity study; sprague dawley; Oral; Gavage/Intubation; dose end: 17 GD; group: maternal; systemic / in life observation / body weight / body weight + systemic / in life observation / body weight / body weight gain + systemic / in….
In data set [12] the test system is rabbit. To be noted: Prenatal developmental toxicity study, new zealand white, Oral, Gavage/Intubation, dose end: 18 GD.
Data set [13] deals with rat. Conditions: Prenatal developmental toxicity study; sprague dawley; Oral; Gavage/Intubation; dose end: 17 GD; group: maternal; systemic / in life observation / body weight / body weight + systemic / in life observation / body weight / body weight gain.
For data set [14], the system named is dog. Conditions: Chronic toxicity; beagle; Oral; Capsule; dose end: 52 week; group: systemic; systemic / clinical chemistry / cholesterol / cholesterol + systemic / hematology / lymphocyte / lymphocyte + systemic / in life observation….
Data set [15] relates to rat. Conditions: Multigenerational reproductive toxicity study, other, Oral, Feed, dose end: 2 generation.
The test system of data set [16] is rabbit. To be noted: Prenatal developmental toxicity study; new zealand white; Oral; Gavage/Intubation; dose end: 19 GD; group: maternal; reproductive / reproductive performance / postimplantation loss / postimplantation loss + reproductive / reproductive performance / ….
Data set [17] has as its system mouse. Conditions: Carcinogenicity; cd1; Oral; Feed; dose end: 78 week; group: systemic; systemic / in life observation / body weight / body weight gain + systemic / pathology microscopic / epididymis / concretion + systemic / ….
Data set [18] deals with rat. To be noted: Subchronic oral toxicity in rodents, sprague dawley, Feed, dose end: 13 week, group: systemic.
Data set [19] relates to rat. To be noted: Combined chronic toxicity/carcinogenicity; sprague dawley; Oral; Feed; dose end: 104 week; group: systemic; systemic / in life observation / body weight / body weight.
In data set [20] the test system is rat. Conditions: Prenatal developmental toxicity study, other, Oral, Gavage/Intubation, dose end: 15 GD. The source holds these as a separate data set.
[21] abbreviates: group: developmental, developmental / developmental malformation / bone / unossified + developmental / developmental malformation / bone / full supernumerary + ….
[22] abbreviates: group: maternal, systemic / in life observation / body weight / body weight gain.
The mark [23] stands for this setting: group: maternal, systemic / in life observation / body weight / body weight gain + systemic / in life observation / body weight / body weight + systemic / in….
The mark [24] stands for this setting: systemic / in life observation / body weight / body weight gain.
Where [25] appears, read: systemic / in life observation / mortality / mortality + systemic / pathology microscopic / kidney / degeneration + systemic / pathology ….
[26] abbreviates: group: developmental, developmental / developmental malformation / brain / [other] + developmental / developmental malformation / general / crown-rump length + ….
[27] abbreviates: group: maternal, systemic / organ weight / uterus / nos.
The mark [28] stands for this setting: group: developmental, developmental / developmental malformation / bone / bipartite ossification + developmental / developmental malformation / bone / thickened….
Setting [29] is: systemic / clinical chemistry / glucose / glucose.
The mark [30] stands for this setting: group: offspring, developmental / offspring survival late / viability index / viability index + systemic / in life observation / body weight / offspring (pup….
The mark [31] stands for this setting: group: parental, systemic / in life observation / body weight / body weight + systemic / in life observation / body weight / body weight gain + systemic / in….
[32] abbreviates: systemic / clinical chemistry / cholesterol / cholesterol + systemic / hematology / mean corpuscular (cell) volume (mcv) / mean corpuscular….
The mark [33] stands for this setting: systemic / hematology / mean corpuscular hemoglobin (mch) / mean corpuscular hemoglobin (mch).
The mark [34] stands for this setting: group: developmental, systemic / in life observation / body weight / fetal weight.
[35] abbreviates: group: maternal, systemic / in life observation / clinical signs / defecation + systemic / in life observation / mortality / mortality.
[36] abbreviates: group: maternal, systemic / in life observation / clinical signs / defecation + systemic / in life observation / mortality / mortality + systemic / in life ….
[37] abbreviates: group: offspring, systemic / in life observation / body weight / offspring (pup) weight.
[38] abbreviates: group: parental, systemic / in life observation / body weight / body weight gain + systemic / in life observation / food consumption / food consumption.
Where [39] appears, read: systemic / clinical chemistry / alanine aminotransferase (alt/sgpt) / alanine aminotransferase (alt/sgpt) + systemic / clinical chemistry / ….
[40] abbreviates: group: developmental, developmental / developmental malformation / bone / bipartite ossification + developmental / developmental malformation / bone / cervical + ….
Setting [41] is: group: maternal, reproductive / reproductive performance / postimplantation loss / postimplantation loss + reproductive / reproductive performance / ….

On to `O=C(O)COc1ccc(Cl)cc1` [4-Chlorophenoxyacetic acid], for which the LEL in data set [1] was determined as 517 mg/kg/day; in data set [2] (group: developmental, developmental / developmental malformation / bone / unossified + developmental / developmental malformation / bone / full supernumerary), 300 mg/kg/day; in data set [2] (setting [22]) it was 300 mg/kg/day; in data set [3] it was 17.4 mg/kg/day. The LOAEL amounted to 517 mg/kg/day in data set [1]; 300 mg/kg/day in data set [2] (group: developmental, developmental / developmental malformation / bone / unossified); 300 mg/kg/day in data set [2] (setting [22]); 17.4 mg/kg/day in data set [3]. For the same compound, the NEL is 132 mg/kg/day in data set [1], 150 mg/kg/day in [2] (setting [21]), 150 mg/kg/day in data set [2] (setting [23]) and 4.05 mg/kg/day in data set [3]. Besides, the no-observed-adverse-effect level (NOAEL) turned out to be 132 mg/kg/day in data set [1], 150 mg/kg/day in data set [2] (setting [21]), 150 mg/kg/day in data set [2] (setting [23]) and 4.05 mg/kg/day in [3].
Take `Fc1ccccc1[C@@H](F)COC1CCC(Nc2ncnc3[nH]ncc23)CC1` (stereo partly drawn) [MK-968]: in data set [4], the LEL was 300 mg/kg/day, the LOAEL is more than 750 mg/kg/day, the NEL turned out to be 10 mg/kg/day and the NOAEL was not below 750 mg/kg/day.
On to `N#CN` [Cyanamide], for which the LEL stood at 5 mg/kg/day in [5] (setting [24]); 12 mg/kg/day in data set [6] (group: developmental, developmental / developmental malformation / eye / retina fold); 4 mg/kg/day in data set [6] (setting [27]); 90 mg/kg/day in [7] (setting [28]); 10 mg/kg/day in data set [7] (setting [22]); 1 mg/kg/day in data set [8] (setting [29]). The LEL in [9] (setting [30]) was determined as 1.25 mg/kg/day; in data set [9] (setting [31]), 3.75 mg/kg/day; in data set [10] (setting [33]), 0.4 mg/kg/day. The NEL is less than 5 mg/kg/day in [5] (setting [24]); 4 mg/kg/day in data set [6] (setting [26]); less than 4 mg/kg/day in [6] (setting [27]); 30 mg/kg/day in data set [7] (setting [28]); less than 10 mg/kg/day in data set [7] (setting [22]); less than 1 mg/kg/day in data set [8] (setting [29]). For the same compound, the NEL is less than 1.25 mg/kg/day in data set [9] (setting [30]), 1.25 mg/kg/day in data set [9] (setting [31]) and less than 0.4 mg/kg/day in data set [10] (setting [33]). Also, the LOAEL in data set [5] (setting [25]) was 16.9 mg/kg/day; in data set [6] (setting [26]) it was 36 mg/kg/day; in data set [6] (setting [22]), 12 mg/kg/day; in data set [7] (setting [28]), 90 mg/kg/day; in [7] (setting [22]), 10 mg/kg/day; in data set [8] (systemic / in life observation / body weight / body weight gain + systemic / pathology microscopic / thyroid gland / colloid content), 7.5 mg/kg/day. The figures for the lowest observed adverse effect level (LOAEL) in data set [9] (setting [30]), in [9] (setting [31]) and in data set [10] (setting [32]) were 1.25 mg/kg/day, 3.75 mg/kg/day and 2 mg/kg/day, respectively. The no observed adverse effect level (NOAEL) was 6.9 mg/kg/day in data set [5] (setting [25]); 12 mg/kg/day in data set [6] (setting [26]); 4 mg/kg/day in data set [6] (group: maternal, systemic / organ weight / uterus / nos + systemic / in life observation / body weight / body weight gain + reproductive / reproductive …); 30 mg/kg/day in data set [7] (setting [28]); less than 10 mg/kg/day in data set [7] (setting [22]); 2.5 mg/kg/day in data set [8] (systemic / in life observation / body weight / body weight gain + systemic / pathology microscopic / thyroid gland / colloid content + …). The figures for the NOAEL in data set [9] (setting [30]), in [9] (setting [31]) and in [10] (setting [32]) were less than 1.25 mg/kg/day, 1.25 mg/kg/day and 0.4 mg/kg/day, respectively.
Consider `NCc1cccc(C2CCN(C(=O)c3ccc(C#Cc4ccccc4F)o3)CC2)c1` [AVE5638], for which the LEL in data set [11] stood at 40 mg/kg/day; in data set [12] (setting [34]) it was 225 mg/kg/day; in [12] (setting [35]), 100 mg/kg/day; in [13], 40 mg/kg/day. For the same compound, the lowest-observed-adverse-effect level (LOAEL) in [11] is 40 mg/kg/day; in [12] (setting [34]), 225 mg/kg/day; in [12] (setting [35]) it was 100 mg/kg/day; in data set [13] it was 40 mg/kg/day. The NEL is 5 mg/kg/day in data set [11], 100 mg/kg/day in data set [12] (setting [34]), 25 mg/kg/day in data set [12] (setting [36]) and 5 mg/kg/day in data set [13]. In addition, the NOAEL in data set [11] was determined as 5 mg/kg/day; in data set [12] (setting [34]), 100 mg/kg/day; in data set [12] (setting [36]), 25 mg/kg/day; in [13], 5 mg/kg/day.
`COC(=O)c1c(Cl)nn(C)c1S(=O)(=O)NC(=O)Nc1nc(OC)cc(OC)n1` [Halosulfuron-methyl]: the LEL in [14] was 10 mg/kg/day; in [15] (setting [37]) it was 61 mg/kg/day; in [15] (group: parental, systemic / in life observation / body weight / body weight), 69.7 mg/kg/day; in data set [16] it was 150 mg/kg/day; in [17] it was 972 mg/kg/day; in data set [18] (systemic / pathology microscopic / kidney / hemosiderosis), 116 mg/kg/day. Further, the LEL came out at 139 mg/kg/day in [19], 750 mg/kg/day in data set [20] (setting [40]) and 750 mg/kg/day in [20] (setting [41]). Also, the lowest-observed-adverse-effect level (LOAEL) in [14] is 10 mg/kg/day; in [15] (setting [37]) it was more than 274 mg/kg/day; in data set [15] (setting [38]) it was 223 mg/kg/day; in data set [16], 150 mg/kg/day; in [17], 972 mg/kg/day; in [18] (setting [39]) it was 497 mg/kg/day. The lowest observed adverse effect level (LOAEL) was 139 mg/kg/day in data set [19], 750 mg/kg/day in [20] (setting [40]) and 750 mg/kg/day in [20] (setting [41]). Also, the NEL was 1 mg/kg/day in data set [14]; 7.4 mg/kg/day in data set [15] (setting [37]); 8.9 mg/kg/day in data set [15] (group: parental, systemic / in life observation / body weight / body weight + systemic / in life observation / food consumption / food consumption); 50 mg/kg/day in data set [16]; 410 mg/kg/day in data set [17]; 28.8 mg/kg/day in [18] (setting [39]). For the same compound, the NEL was 56.3 mg/kg/day in [19], 250 mg/kg/day in [20] (setting [40]) and 250 mg/kg/day in data set [20] (setting [41]). The no-observed-adverse-effect level (NOAEL) in data set [14] is 1 mg/kg/day; in [15] (setting [37]), not below 274 mg/kg/day; in data set [15] (setting [38]) it was 50.4 mg/kg/day; in data set [16], 50 mg/kg/day; in data set [17] it was 410 mg/kg/day; in data set [18] (setting [39]), 116 mg/kg/day. For the same compound, the no-observed-adverse-effect level (NOAEL) came out at 56.3 mg/kg/day in data set [19], 250 mg/kg/day in data set [20] (setting [40]) and 250 mg/kg/day in data set [20] (setting [41]).
